ChEMBL document CHEMBL3507680, “University of Dundee, Gates Library screen for HepG2 cell viability”

Assay: Human HepG2 cell viability assay in 384 well format
Assay type: toxicity, cell-based
Set-up: dose 125 nL, time 70.5 hour; concentration not given beside the values
Settings: HepG2 cells, read-out: Inhibition

SMILES	cytotoxicity at 70.5 h
O=C(c1ccccc1F)N1CC(c2nc(C3CC3)no2)C1	-11.5%
O=C(Nc1cccs1)N1CC(c2nc(C3CC3)no2)C1	-5.71%
O=C(C1CCCC1)N1CC(c2nc(Cc3ccccc3)no2)C1	-14.5%
CCOC(=O)CCC(=O)N1CC(c2nc(Cc3ccccc3)no2)C1	-6.9%
Cc1noc(C2CN(CC(=O)NCC3CCCO3)C2)n1 (centres undefined)	-3.62%
N#Cc1cccc(C(=O)N2CC(c3nc(-c4cccnc4)no3)C2)c1	10%
O=C(Cc1cccs1)N1CC(c2nc(-c3cnccn3)no2)C1	-6.93%
O=C(c1ccsc1)N1CC(c2nc(-c3ccc[nH]c3=O)no2)C1	12.8%
O=C(c1ccc(Cl)s1)N1CC(c2nc(-c3ccc[nH]c3=O)no2)C1	-8.84%
O=C(c1ccno1)N1CC(c2nc(-c3ccco3)no2)C1	-1.91%
Cc1ccc(-c2nnc(CCC(=O)NCc3cn(C)nc3C)o2)s1	-9.67%
c1ccc2c(c1)CC(N1CCCN(Cc3cccc4nonc34)CC1)C2	21.6%
N#CC1(C(=O)N2C[C@H]3CC[C@@H]2CN(Cc2ccncc2)C3)CCOCC1	-23.5%
N#Cc1ccc(C(=O)N2C[C@@H](CN3CCCC3)C[C@H](CO)C2)cc1	-2.46%
CCOCCC(=O)N(C)Cc1noc(C(C)C)n1	24.4%
CCN(CC1CCOCC1)C(=O)Cn1ccccc1=O	-9.29%
CNc1nc2c(c(C(=O)N3CCCC3)n1)CN(Cc1ccco1)CC2	-3.76%
CNc1cc(C(=O)N2CCCCC2CCn2ccnc2C)ccn1 (centres undefined)	-2.8%
O=C1CCCN1CCCC(=O)N1CCC2(CC1)[C@H](O)C[C@@H]2O	-0.254%
O=C1CC(C(=O)O)C2(CCN(C(=O)NCc3ccc(Cl)cc3)CC2)N1 (centres undefined)	-2.42%
CO[C@H]1C[C@@H](O)C12CCN(C(=O)CCCOc1ccccc1)CC2	-8.27%
CCN(Cc1ccncc1)C(=O)CCn1c(C)cc2ccccc21	-3.9%
CN(CCc1ccccn1)c1cc(N2CCCCC2)ncn1	-6.31%

SMILES	cytotoxicity at 70.5 h
COc1ccc(Oc2cccc(C#N)n2)cc1CN1CCCC1	-1.4%
OC1(CNCc2csc(-c3ncccn3)n2)CCCNC1 (centres undefined)	-5.29%
Cc1ccccc1OCC1CCCN(C(=O)CN(C)C2CCNCC2)C1 (centres undefined)	-4.15%
Cc1cc(NC(=O)CNCc2csc(-c3ncccn3)n2)ccc1Cl	-14.6%
COc1ccccc1OCc1cc(C(=O)N2CCN(C(C)=O)CC2)n[nH]1	-5.97%
O=C1CC(NCc2ccccn2)CN1CCc1ccc(F)cc1 (centres undefined)	20.5%
COCc1nc(CNC2CCC3(CCNCC3)CC2)no1	-8.94%
Cc1ncc(CN2CCCC2c2ccc(C(=O)NCc3ccoc3)s2)s1 (centres undefined)	-0.861%
Cc1ccc2[nH]nc(C(=O)NCC3CCN(Cc4c[nH]cn4)C3)c2c1 (centres undefined)	-5.7%
O=C(CC1CNCCO1)N1CCC(c2cc(N3CCCC3)ncn2)CC1 (centres undefined)	12.3%
CCCOC1CCCN(C(=O)c2ccc(S(N)(=O)=O)cc2)C1 (centres undefined)	-3.49%
O=C(NCc1cc(N2CCOCC2)ncn1)c1cccc(CO)n1	5.15%
COc1ccc(CC2(C(=O)O)CCN(c3nc(C)ncc3C)CC2)cc1	-10.8%
Cc1nc2c(NCC(C)N(C)c3ccccc3)ncnc2o1 (centres undefined)	-5.13%
O=C1N(Cc2ccc(F)c(F)c2)CCCC1(O)CNCc1ncc[nH]1 (centres undefined)	-1.39%
COCCc1noc(CNC2CCCC(C)(C)C2)n1 (centres undefined)	-4.63%
Cc1c(Cn2ccnc2-c2cc(CN(C)C)cs2)cnn1C	3.72%
Cc1csc2ncnc(N3CCC(Cn4cc(C(C)(C)N)nn4)CC3)c12	2.54%
CN1CC2(CCCN(c3nc(N)nc4c3CCCC4)C2)OC1=O (centres undefined)	-10.1%
CCCn1ncc(C(=O)N(C)Cc2cc(C3CC3)[nH]n2)c1C	0.995%
Cc1nc(N[C@H]2COC[C@@H]2N2CCCC2)c2cnn(C)c2n1	-8.31%
Cc1nc(N)sc1C(=O)N1CCC(C(O)Cc2ccccc2)CC1 (centres undefined)	-7.21%
CC(C)n1cnnc1CN(C)C(=O)C1CCCN(CC(N)=O)C1 (centres undefined)	-10.5%

SMILES	cytotoxicity at 70.5 h
CCC(C)N(Cc1sccc1C)C(=O)c1cc(N)ccn1 (centres undefined)	-11.9%
CC(C)c1nc(CN(C)Cc2cnc(N3CCOCC3)nc2)no1	-6.44%
CN(Cc1ccccc1)CC(O)Cn1cnc2sccc2c1=O (centres undefined)	-8.79%
CCS(=O)(=O)N1CCC(NC(=O)c2ccccc2O)CC1	-6.17%
Cc1cc(C(=O)O)cc(S(=O)(=O)Nc2ccc3c(c2)OCCO3)c1C	-3.8%
CCS(=O)(=O)N1CCC(NC(=O)c2cc3ccccc3cc2O)CC1	12.9%
CN(Cc1ccccc1)CC(O)Cn1cnc2ccc(Br)cc2c1=O (centres undefined)	-5.18%
CCS(=O)(=O)N1CCC(NC(=O)c2cc(C)ccc2O)CC1	-5.66%
CC(C#N)CN(C)Cc1nc2c(cnn2C)c(=O)[nH]1 (centres undefined)	-7.12%
CC(C)CCN(CCC(C)C)Cc1nc2c(cnn2C)c(=O)[nH]1	2.1%
CN(Cc1ccccc1)CC(O)Cn1cnc2cc(F)ccc2c1=O (centres undefined)	-7.28%
Cc1ccccc1OCCCC(=O)NCC1CN(C)CCO1 (centres undefined)	-1.6%
N#Cc1ccc(S(=O)(=O)NC(=O)COc2ccc3c(c2)CCC3)cc1	-1.54%
CC(C)CCN(C(=O)c1nc(S(C)(=O)=O)n2ccccc12)C1CC1	-1.14%
Cc1ccc(C(=O)N2CCCC(n3cccn3)C2)cc1S(C)(=O)=O (centres undefined)	0.0611%
Cc1ccc2oc(C(=O)N3CCCC(n4cccn4)C3)cc2n1 (centres undefined)	21.1%
Cc1cnn(C2CCCN(C(=O)c3cc4nc(C)ccc4o3)C2)c1 (centres undefined)	-5.06%
c1ccc(-c2nc(CNC3CCc4ncnn4C3)cs2)cc1 (centres undefined)	0.00764%
Cc1nnc2n1CCN(C(C(=O)NC(C)C)c1ccccc1)C2 (centres undefined)	19.5%
CCNc1cc2c(nn1)CCN(C(=O)Cc1ccc(C)nc1)C2	-6.5%
COCc1nc(C(=O)NS(=O)(=O)c2c(C)c(C)cc(C)c2C)cs1	2.47%
Cc1ccc2oc(C(=O)N3CCCC(n4ccnc4C)C3)cc2n1 (centres undefined)	0.879%
O=C(CCCOc1ccccc1)N1CCCC(n2cncn2)C1 (centres undefined)	2.63%

SMILES	cytotoxicity at 70.5 h
N#Cc1ccc(CS(=O)(=O)NC(=O)COc2ccc3c(c2)CCC3)cc1	-5.23%
COCc1nc(C(=O)NS(=O)(=O)c2ccc(F)cc2F)cs1	0.492%
Cn1cc(-c2nc(CN3CCc4c(ncn4C)C3)cs2)cn1	31%
CCN(CC1CCOC1)C(=O)Nc1ccc(N2CCOCC2)nc1 (centres undefined)	18.9%
O=C(c1cc(C2CC2)on1)N1CCCC(n2cccn2)C1 (centres undefined)	23.8%
Cn1cnc2c1CCN(Cc1csc(-c3ccccc3)n1)C2	24.1%
NC(=O)C1CCN(C(=O)c2ccc(OCc3cscn3)cc2)CC1	55.1%
O=C(c1cccc(OCc2cscn2)c1)N1CCOCC1	0.0866%
CC(=O)N1CCC(NC(=O)N(C)Cc2c(C)noc2C)CC1	-8.21%
O=C(NCCn1ccnc1)N1CCCC1c1ccncc1 (centres undefined)	1.26%
Cc1noc(C2CCCN(C(=O)CCNc3ncccn3)C2)n1 (centres undefined)	-13.2%
Cc1cnn(CC(=O)NCC2CCN(c3cc(Cl)ccc3C)C2)c1 (centres undefined)	6.3%
CC(C)n1ccnc1CN1CCCN(C(=O)c2ncccc2O)CC1	0.148%
Cc1cc(C2CCCN2Cc2cc(=O)n(C)c(=O)n2C)no1 (centres undefined)	18.5%
Cn1cnc2c1CCN(Cc1csc(-c3ccc(F)cc3)n1)C2	-3.43%
c1ncn(CC2CCCN(Cc3cn4ccsc4n3)C2)n1 (centres undefined)	-5.75%
Cn1cc(CN2CCCN(C(=O)c3ccccn3)CC2)cn1	-1.29%
CC(C(=O)NC1CC1)N1CCN(Cc2ccn(C)c(=O)c2)CC1 (centres undefined)	0.0611%
O=C(NCC1CCOC1)Nc1ccc(Oc2cccc(F)c2)nc1 (centres undefined)	-10.7%
CN1CC(C(=O)NCc2ccnc(-n3cccn3)c2)CC1=O (centres undefined)	-22.4%
CN(C)c1ccc(C(=O)N2CCN(c3cnccn3)CC2)cn1	-17.1%
CCC1c2ccsc2CCN1C(=O)NCc1ccnc(N(C)C)c1 (centres undefined)	-9.44%
CN(C)c1cc(C(=O)N2CCN(c3nccs3)CC2)ccn1	-13.8%

SMILES	cytotoxicity at 70.5 h
CCC1c2ccsc2CCN1C(=O)NCc1cccnc1OC (centres undefined)	-11.2%
COc1cccc(-n2nnc(C(=O)N3CCCC(C)C3)c2C)c1 (centres undefined)	-10.2%
O=C(Nc1nccs1)NC1CCN(Cc2ccccc2)CC1	-15.7%
CN(C)c1cc(C(=O)N2CCN(c3cc(C#N)ccn3)CC2)ccn1	-16.5%
CCN1CC(C(=O)NCc2ccnc(-n3cccn3)c2)CC1=O (centres undefined)	-4.01%
O=C(c1ccc2c(c1)CCCC2)N1CCN(c2cnccn2)CC1	-11.8%
CC(Nc1cccc(CN2CCOC2=O)c1)C(=O)Nc1cccc(F)c1 (centres undefined)	-0.899%
COc1ccccc1N1CCN(C(=O)c2ccnc(N(C)C)c2)CC1	36.2%
Cn1cc(NC(=O)C2CC(c3ccccc3)C2)ccc1=O (centres undefined)	-15.7%
O=C(Cc1cn2ccsc2n1)N1CCCC(n2cccn2)C1 (centres undefined)	-3.32%
COc1cccc(-n2nnc(C(=O)N3CCOC(C)C3)c2C)c1 (centres undefined)	-1.7%
Cn1cc(NC(=O)N2CCC2c2ccccc2)ccc1=O (centres undefined)	-4.87%
c1cncc(-c2noc(CNCC3CCCN3c3cccnn3)n2)c1 (centres undefined)	-2.21%
Cc1nc(C(=O)N2CCCN(Cc3cnn(C)c3)CC2)ccc1C#N	-8.5%
CC(C)Oc1ccc(C(=O)N2CCCCC2Cn2cccn2)cn1 (centres undefined)	-4.78%
CCOc1ccc(C(=O)N2CCCC2Cn2cc(C)cn2)cn1 (centres undefined)	-5.61%
COc1ccc(CNCc2ccnc(N3CCCC3)c2)c(OC)c1	-1.69%
NC(=O)CN1CC(c2nc(C3CC3)no2)C1	-7.4%
O=C(CN1CC(c2nc(C3CC3)no2)C1)NCc1ccc(F)cc1	-4.69%
O=C(CN1CC(c2nc(C3CC3)no2)C1)NCC1CCCO1 (centres undefined)	3.91%
O=C(CN1CC(c2nc(Cc3ccccc3)no2)C1)NCC1CCCO1 (centres undefined)	-0.885%
O=C(CN1CC(c2nc(-c3ccco3)no2)C1)NCc1ccc(F)cc1	0.546%
